Data taken from patent publication US4853385A, “7-N,8-N-Ethylenemitomycin 8-imines” (Kyowa Hakko Kogyo Co., Ltd., priority 1987, dated 1989).

Experiments:
[1] = test system: lymphocytic leukemia P-388; assay: Antitumor activity against lymphocytic leukemia P-388; type: in vivo, CDF1 mice (P-388 from DBA/2 mice); conditions: single i.p., 33-day observation
Experimental: (§1) Some compounds were chosen from Compound I and antitumor activity against lymphocytic leukemia P-388 and mitomycin C-resistant P-388 was measured.
The experiment was carried out by the following method.
(§2) From the peritoneal cavity of P-388 ascitic tumor-bearing mice (DBA/2) 7 days after the implantation, an ascitic fluid was collected. The cell number of P-388 in the ascitic fluid was counted, and the cells were suspended in sterile physiological saline to prepare a tumor cell suspension containing 5×10^6 cells/ml. 0.2 ml (containing 1×10^6 cells) of the suspension was implanted intraperitoneally into CDF1 mice weighing 20 to 25 g. The test compound was intraperitoneally administered to each mouse of one test group consisting of 6 CDF1 mice at a single dosage in 24 hours after the implantation of the tumor. 33-Day observation gave the survived life span for each mouse. Evaluation of the effect of the test compound was made by a ratio of a mean survival days after the implantation of the mice treated with the test compound to a mean survival days of the mice untreated with the test compound in the control group (Increased Life Span, ILS%). Then, ILS*, which is a ratio of ILS % of the test compound to ILS % of mitomycin C used as a reference compound under the same conditions, was calculated and shown in Table 4.

[2] = test system: mitomycin C-resistant P-388; assay: Antitumor activity against mitomycin C-resistant P-388; type: in vivo, CDF1 mice (P-388 from DBA/2 mice); conditions: single i.p.
Experimental: as §1, §2
Further, the experiment was carried out in the same manner as above, using lymphocytic leukemia P-388 resistant to mitomycin C. Evaluation of the effect of the test compound is shown by a ratio (ILS %) to a mean survival data of the control group (untreated mice).

[3] = Acute toxicity (LD50, Beherns Kaerber's method); conditions: mouse, in vivo, ip; single i.p. administration, 14 days observation, ddY mice
Experimental: (§3) Some compounds were chosen from Compound I, and antitumor activity (ED50) against Sarcoma 180 solid tumor and acute toxicity (LD50) were measured.
Each animal of the test group consisting of 5 ddY mice was administered intraperitoneally once with a test compound. […] The LD50 was determined by Beherns Kaerber's method.

Sarcoma 180 solid tumor = assay: Antitumor activity against sarcoma 180 solid tumor (tumor volume T/C, ED50); type: in vivo; conditions: ddY mice; for CI (chemotherapy index, LD50/ED50): sarcoma 180 solid tumor, i.p.; for ED50: Mus musculus, Sarcoma-180, ip, 168 h, i.p. 24 h after s.c. implantation, tumor volume at 7 days, dose for T/C 0.5
Experimental: as §3
(1) Effect on sarcoma 180 solid tumor
Sarcoma 180 cells of 5×10^6 were intraperitoneally implanted into ddY mice. Seven days after, the cells were collected from the ascites. The cells were washed once with a sterile physiological saline, and the cells were suspended in sterile physiological saline to prepare a cell suspension containing 5×10^7 cells per ml. 0.1 ml of the suspension was subcutaneously implanted into the right axilla of male ddY mice weighing 20±2 g. The test compound was dissolved in physiological saline with or without addition of Tween 80 and was administered intraperitoneally into each mouse of a group consisting of 5 mice at a dose of 0.1-0.2 ml, 24 hours after the implantation of the tumor cells.
The anti-tumor activity was determined in the following manner. 7 days after the implantation, the major axis (a) and the minor axis (b) of the tumor were measured to calculate a value of "a×b^2 /2" which corresponds to the volume of the tumor. The anti-tumor activity was expressed by the ratio (T/C) of the volume (T) of the tumors of the group of animals administered with the test compound to the corresponding volume (C) of tumors of the untreated animals.
(2) Determination of ED50 :
On graph paper, T/C was indicated by an arithmetic scale on the longitudinal axis and the administered amount of the test compound was indicated by a logarithmic scale on the lateral axis. The relationship between the dose and T/C was plotted by a straight line determined by the method of least squares, from which a dose corresponding to T/C of 0.5 was obtained.
CI in the table indicates chemotherapy index and given by:
As is clear from this definition, the CI value reflects selective toxicity against tumor. As the CI value is larger, the effect as an antitumor agent is more excellent, and from a clinical viewpoint, allowance of chemicals in dosage becomes broader. Therefore, the CI value is one of the most important indices in evaluation of antitumor agents.

SMILES | ILS* (ratio of ILS % of test compound to ILS % of mitomycin C) ([1]; P-388, dose 1.25 mg/kg) | ILS(%) (ratio to mean survival of the untreated control group) ([2]; mitomycin C-resistant P-388, dose 1.25 mg/kg) | ILS* (ratio of ILS % of test compound to ILS % of mitomycin C) ([1]; P-388, dose 1.5 mg/kg) | ILS(%) (ratio to mean survival of the untreated control group) ([2]; mitomycin C-resistant P-388, dose 1.5 mg/kg) | LD50 at 336 h [3] | CI (chemotherapy index, LD50/ED50) (Sarcoma 180 solid tumor) | ED50 (Sarcoma 180 solid tumor) | ILS* (ratio of ILS % of test compound to ILS % of mitomycin C) ([1]; P-388, dose 100 mg/kg) | ILS(%) (ratio to mean survival of the untreated control group) ([2]; mitomycin C-resistant P-388, dose 100 mg/kg)
CO[C@@]12[C@H](COC(N)=O)C3=C(C(=O)C(C)=C4NC5CCCCC5N=C43)N1C[C@H]1[C@@H]2N1C (stereo partly drawn) [Compound 5, 7-N,8-N--(1,2-Cyclohexylene) porfiromycin 8-imine] | 0.56 | 144% |  |  |  |  |  |  | 
CO[C@@]12[C@H](COC(N)=O)C3=C(C(=O)C(C)=C4NCCN=C43)N1C[C@H]1[C@@H]2N1C (stereo partly drawn) [Compound 1, 7-N,8-N-ethyleneporfiromycin 8-imine] |  |  | 0.60 | 135% | 2.6 mg/kg | 1.73 | 1.5 mg/kg |  | 
CC1=C2NCCN=C2C2=C(C1=O)N1C[C@H]3[C@H](N3C)[C@]1(O)[C@H]2COC(N)=O (stereo partly drawn) [Compound 2, 7-N,8-N--Ethylenemitomycin D 8-imine] |  |  |  |  | 22.5 mg/kg | 2.12 | 10.6 mg/kg |  | 
CO[C@@]12[C@H](COC(N)=O)C3=C(C(=O)C(C)=C4NCCN=C43)N1C[C@@H]1N[C@@H]12 [Compound A, 7-N,8-N-ethylenemitomycin C 8-imine, reference compound] |  |  |  |  | 6.5 mg/kg | 1.10 | 5.9 mg/kg | 0.43 | 107%
CO[C@]12[C@@H]3[C@H](CN1C1=C(C4=NCCNC4=C(C)C1=O)[C@@H]2COC(N)=O)N3C (stereo partly drawn) [Compound 3, 7-N,8-N--Ethylenemitomycin E 8-imine] |  |  |  |  | 5.6 mg/kg | 1.51 | 3.7 mg/kg |  | 
C=C1C2=C(C(=O)C(C)=C3NCCN=C32)N2C[C@H]3[C@H](N3C)[C@]12O (stereo partly drawn) [Compound 4, 9a-O--Demethyl-7-N,8-N--ethylenemitomycin G 8-imine] |  |  |  |  | 100 mg/kg | 2.11 | 47.5 mg/kg |  | 
